Counter-ions that a name gives are not always drawn. Like-named read-outs stand apart in the source and are kept apart here.
How the values were obtained:
M-cholinrezeptoren = assay: Radioligand displacement of 3H-Propyl-2-aminobenzylat in brain; format: binding, Kaninchens
Description: (§1) Dies beweisen spezielle Radioligandenuntersuchungen an einzelnen erfindungsgemäßen Verbindungen (s. Tabelle 6).

[1] = system: Na -Durchlässigkeit der Membrane des Ranvier-Schnürringes; assay: Na+ permeability of the node of Ranvier membrane, voltage clamp; design: species or system Frosches; conditions: concentration giving 50 % block of ion permeability
Description: (§2) Untersucht wurden die Wirkmechanismen der erfindungsgemäßen Verbindungen: • 1. Die Wirkung auf Acetylcholinesterase menschlicher Erythrozyten auf spektrofotometrischem Wege. • 2. Die Wirkung auf die K - und Na -Durchlässigkeit der Membrane des Ranvier-Schnürringes (s. Fox T.M. et al. "Modification of ionic membrane currrents of Ranvier nodes by UV-radiation under voltage clamp conditions", Experientia, 27, 1289-1290 /1971/ und Arhom P. et al. "Local anesthetics: effects on permeability properties of nodal membrane in myelynated nerve fibres from xenopus". Acta physiol. Scand. 91, 11-21 /1974/) der Nervenfasern des Hüftnervs des Frosches unter Anwendung der Methode der Messung der Membranspannung (Voltage-clampmethode) (s. Derksen H.E. "Axon membrane voltage fluctuations", Acta Physiol., Pharmacol Neer, 13, 373-466 /1965/).
(§3) Alle erfindungsgemäßen Verbindungen sind Blocker für die K^+-Durchlässigkeit der Membrane analog dem Amyridin. Die Salze der bicyclischen Basen blockieren jedoch stärker die Na -Durchlässigkeit der Membrane, was sich mit ihren sedativen und analgetischen Eigenschaften in Verbindung bringen läßt.

Uterus der Ratte = assay: Contractile activity of smooth muscle: rat uterus; conditions: n = 9; for activity at 100 µM / activity at 10 µM: Rattus norvegicus; for activity at 100 µM: Konzentration 1.10^-4 Mol
Description: (§4) In Versuchen an glattmpskulären Organen (Uterus, Samenleiter der Ratte und Krummdarm des Meerschweinchens) wurden die Wirkung der erfindungsgemäßen Verbindungen auf die kontraktile Aktivität der glatten Muskeln und ihre Reaktionen auf den Einfluß von Acetylcholin, Serotonin, Adrenalin und KCI als Agonisten untersucht. Mit Hilfe eines Schreibers wurden die Amplitude und die Dauer der Kontraktion der glatten Muskeln unter Verwendung eines Geräts vom Typ Mechanstron-untersucht.

M2-Cholinrezeptoren = biological target: T1, M2-Cholinrezeptoren (Oryctolagus cuniculus, UniProt G1TBX1); assay: Radioligand displacement of 3H-Chinuklidin in heart; format: binding, Kaninchen; conditions: read-out: Verdrängung des 3H-Chinuklidins im Kaninchenherzen (M2-Cholinrezeptoren); for inhibition at 10 µM: Konzentration 1.10^-5 Mol; for inhibition at 1 µM: Konzentration 1.10^-6 Mol
T1 construct: im Kaninchen-herzen (M2-Cholinre-zeptoren); from tissue; host or cells: rabbit heart
T1 sequence (G1TBX1 1-520): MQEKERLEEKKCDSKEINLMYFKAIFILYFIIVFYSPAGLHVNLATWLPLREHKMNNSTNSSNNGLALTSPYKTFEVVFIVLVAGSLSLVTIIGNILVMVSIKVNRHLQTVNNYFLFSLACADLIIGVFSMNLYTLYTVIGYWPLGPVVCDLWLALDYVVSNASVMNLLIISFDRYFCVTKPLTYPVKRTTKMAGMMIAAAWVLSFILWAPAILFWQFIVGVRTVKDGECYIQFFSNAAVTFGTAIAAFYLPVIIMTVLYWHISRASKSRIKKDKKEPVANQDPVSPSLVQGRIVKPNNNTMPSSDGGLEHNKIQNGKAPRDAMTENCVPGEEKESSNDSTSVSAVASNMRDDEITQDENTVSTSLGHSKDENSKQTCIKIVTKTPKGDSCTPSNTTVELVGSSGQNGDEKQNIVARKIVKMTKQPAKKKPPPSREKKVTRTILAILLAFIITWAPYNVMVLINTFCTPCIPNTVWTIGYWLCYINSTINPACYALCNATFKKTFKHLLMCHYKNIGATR
Description: as §1

[2] = Side effects and CNS/behaviour: tremor (TD50), sedative and m-cholinomimetic effects; format: in vivo
Description: Von Interesse ist der Einfluß der erfindungsgemäßen Verbindungen auf das ZNS und das Verhalten der Tiere.

[3] = Acute toxicity, single intraperitoneal injection, probit analysis (LD50); format: in vivo, Mäusen; conditions: mice, i.p.
Description: Ihre akute Toxizität wurde an Mäusen (einmalige intraperitoneale Injektion) nach der Methode der Probit-Analyse nach Zichtfield, Wilcoxon, t949 untersucht. In Tabelle 2 sind die Parameter der akuten Toxizität (LDso) angegeben, die eine mäßige Toxizität der erfindungsgemäßen Verbindungen belegen.

[4] = system: K -Durchlässigkeit der Membrane des Ranvier-Schnürringes; assay: K+ permeability of the node of Ranvier membrane, voltage clamp; design: species or system Frosches; conditions: concentration giving 50 % block of ion permeability
Description: as §2, §3

[5] = system: Nerven-Muskel-Präparat von Mäusen (n.peroneus-m.extensor digitorum longus); assay: Neuromuscular transmission in isolated nerve-muscle preparation (EPP, minEPP); conditions: for Stimulierung der Nerven-Muskelübertragung, in % der Amplitude: EPP: EPP = Endplattenpotential
Procedure, shortened: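 Mouse peroneal nerve–extensor digitorum longus preparation, isolated and perfused with O2/CO2-gassed Lilly solution. EPPs and spontaneous minEPPs were recorded by magnetograph, then analysed by computer for frequency, amplitude and duration.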

α2-Adrenorezeptoren = assay: Radioligand displacement of 3H-clonidine in cerebral cortex; format: binding, Kaninchens; conditions: for α2-adrenoblockierende Wirkung: in words, from radioligand studies
Description: as §1

Samenleiter der Ratte = assay: Contractile activity of smooth muscle: rat vas deferens; conditions: n = 9
Description: as §4

[6] = biological target: T2, Acetylcholinesterase menschlicher Erythrozyten (Homo sapiens, UniProt P22303); assay: Acetylcholinesterase inhibition, spectrophotometric; format: biochemical; conditions: Acetylcholinesteraseinhibierung bei menschlichen Erythrozyten IK, (Mol), human erythrocyte enzyme
T2 construct: Acetylcholin-esteraseinhi-bierung bei menschlichen Erythrozyten; from tissue; host or cells: human erythrocytes
T2 sequence (P22303 other isoform, or with tags, fused parts or gaps): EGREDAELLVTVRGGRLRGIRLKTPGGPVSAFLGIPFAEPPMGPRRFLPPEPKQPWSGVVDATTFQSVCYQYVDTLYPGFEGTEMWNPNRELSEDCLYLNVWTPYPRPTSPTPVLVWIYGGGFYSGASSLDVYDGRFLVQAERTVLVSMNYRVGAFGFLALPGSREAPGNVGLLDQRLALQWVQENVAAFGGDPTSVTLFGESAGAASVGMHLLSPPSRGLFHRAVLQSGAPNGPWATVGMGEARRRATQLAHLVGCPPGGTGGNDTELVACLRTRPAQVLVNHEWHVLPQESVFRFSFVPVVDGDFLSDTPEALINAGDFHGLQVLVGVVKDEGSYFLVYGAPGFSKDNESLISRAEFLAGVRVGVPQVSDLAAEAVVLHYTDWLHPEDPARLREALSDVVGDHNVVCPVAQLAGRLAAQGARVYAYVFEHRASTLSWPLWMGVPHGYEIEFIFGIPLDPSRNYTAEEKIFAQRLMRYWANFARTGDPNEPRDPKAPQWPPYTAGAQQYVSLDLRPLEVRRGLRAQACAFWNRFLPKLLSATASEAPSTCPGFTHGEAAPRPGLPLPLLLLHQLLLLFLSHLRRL
Description: Untersucht wurden die Wirkmechanismen der erfindungsgemäßen Verbindungen: • 1. Die Wirkung auf Acetylcholinesterase menschlicher Erythrozyten auf spektrofotometrischem Wege. • 2.

Zahl der Krämpfe = assay: Writhing test (intraperitoneal acetic acid); format: in vivo, Mäusen; conditions: male mice
Description: Die analgetische Wirkung der erfindungsgemäßen Verbindungen wurde an männlichen Mäusen anhand des "Krampf"-Tests (Writhing-Tests) unter intraperitonealer Injizierung von Essigsäure und des Hot-plate-Tests untersucht. Im ersten Falle wurde die analgetische Wirkung der Verbindungen anhand der prozentualen Verringerung der Zahl der Krämpfe ermittelt. Beim zweiten Test wurde die Schwelle der Schmerzempfindlichkeit (Ablecken der Pfoten) bestimmt. Die stärkste analgetische Wirkung der erfindungsgemäßen Verbindungen zeigte sich beim "Krampf"-Test. Dabei übertrafen die Salze der bicyclischen Basen Amyridin, aber nicht alle erfindungsgemäßen Verbindungen waren schwächer als Morphin (s. Tabelle 4).

Wirkung von Hexenal = assay: Influence on the effect of Hexenal; format: in vivo, Mäusen; conditions: mice
[7] = system: isolierten Präparaten des rechten Vorhofs von Kaninchen; assay: Antiarrhythmic effect on isolated right atrium preparations (microelectrodes: AP duration, refractory period R, e/R); conditions: isolated right atrium of rabbit, microelectrodes
Description: (§5) Die antiarrhythmische Wirkung der erfindungsgemäßen Verbindungen wurde in zwei Versuchsserien untersucht, und zwar an isolierten Präparaten des rechten Vorhofs von Kaninchen und mit Hilfe des Calciumchlorid-Arrhythmie-Modells an Ratten. In den Versuchen an den isolierten Präparaten des rechten Vorhofs wurden mit Hilfe von Mikroelektroden die Dauer des AP sowie der Refraktärzeit (R) und die maximale Hemmung (e) und der Parameter (e/R) untersucht, durch den die Anfälligkeit des Myokards gegenüber der Entstehung von Arrhythmien gekennzeichnet wird. In den Versuchen an Ratten wurden diesen Calciumchlorid in einer Dosierung von 250 mg/kg injiziert. Registriert wurden das Vorliegen von Kammerflimmern und die Lebensdauer der Tiere. Sämtliche erfindungsgemäßen Verbindungen üben eine mäßige antiarrhythmische Wirkung aus. Sie steigern die Refraktärzeit des Muskels und des AP um 35 bis 145 % und verringern gleichzeitig die Anfälligkeit des Myokards, ausgedrückt durch den Parameter e/R um 10 bis 80 % (s. Tabelle 4). In bezug auf diese Wirkung waren die Salze der bicyclischen Basen wirksamer als Amyridin. Bezüglich des Vermögens, die Tiere vor Kammerflimmern und vor dem Tod nach Verabreichung von 250 mg/kg Calciumchlorid zu schützen, waren diese Verbindungen ebenfalls am stärksten wirksam. Bei Verwendung des Calciumchlorid-Arrhythmie-Modells waren viele erfindungsgemäßen Verbindungen stärker wirksam als das klassische Antiarrhythmikum Chinidin (s. M.D. Ma s kovskij, Lekarstvennye sredstva, Bd. 1, S. 401, Moskau, Medicina, 1984).

Orientierungsaktivität = assay: Influence on orientation activity; format: in vivo, Mäusen; conditions: mice
Description: Von Interesse ist der Einfluß der erfindungsgemäßen Verbindungen auf das ZNS und das Verhalten der Tiere. Alle Verbindungen zeigen eine Kombination von stimulierenden und sedativen Eigenschaften und bei höheren Dosen auch eine m-cholinomimetische Wirkung, wobei Tremor, Speichelfluß und Diarrhoe ausgelöst werden.

[8] = system: durch Skopolamin hervorgerufene Amnesie; assay: Dark avoidance assay (passive avoidance), scopolamine-induced amnesia; format: in vivo, Mäusen; conditions: for Einfluß auf das Gedächtnis: Zahl der Tiere in %, bei denen die Skopolaminwirkung aufgehoben wurde: mice, compound s.c. 5 min before learning, Skopolamin i.p. 30 min before
[9] = system: Calciumchlorid-Arrhythmie-Modells; assay: Calcium chloride arrhythmia model (250 mg/kg): ventricular fibrillation, survival; format: in vivo, Ratten; conditions: rats, calcium chloride 250 mg/kg
Description: as §5

[10] = Konzentration 1.10^-5 Mol, 10 µM
[11] = Konzentration 1.10^-6 Mol, 1 µM
[12] = in vivo, toxic dose causing tremor in 50 % of the animals
[13] = mouse, in vivo, ip, read-out: LD50

SMILES	Verdrängung des 3H-Propyl-2-aminobenzylats im Gehirn des Kaninchens (M-cholinrezeptoren) (M-cholinrezeptoren; [10])	Verdrängung des 3H-Propyl-2-aminobenzylats im Gehirn des Kaninchens (M-cholinrezeptoren) (M-cholinrezeptoren; [11])	inhibition at 10 µM (M2-Cholinrezeptoren) [%]	inhibition at 1 µM (M2-Cholinrezeptoren) [%]	TD50 [2, 12] [mg/kg]	LD50 [3, 13] [mg/kg]	Stimulierung der Nerven-Muskelübertragung, in % der Amplitude: EPP [5] [%]	Stimulierung der Nerven-Muskelübertragung, in % der Amplitude: minEPP [5] [%]	Verdrängung des 3H-Clonidins in der Hirnrinde des Kaninchens (α2-Adrenorezeptoren) (α2-Adrenorezeptoren; [10])	Verdrängung des 3H-Clonidins in der Hirnrinde des Kaninchens (α2-Adrenorezeptoren) (α2-Adrenorezeptoren; [11])	α2-adrenoblockierende Wirkung (α2-Adrenorezeptoren)	Ki [6] [µM]	Einfluß auf das Gedächtnis: Zahl der Tiere in %, bei denen die Skopolaminwirkung aufgehoben wurde [8] [%]	also measured
Nc1c2c(nc3ccccc13)CCCC2 [Verbindung 41, 2,3,4,5-Tetrahydro-9-amino-acridin, reference compound]	0	0	50	10	10	30	22	40	27	0	in demselben Maße	–	–	IC50 ([1]; read-out: Blockierung der Na^+-Durchlässigkeit der Membrane Ic50 (Mol), node of Ranvier, frog sciatic nerve fibres, voltage clamp): 15 µM; activity at 100 µM (Uterus der Ratte; read-out: Acetylcholin 1.10^-6 (Mol): Amplidude, % bezogen auf d. Kontrolle, Uterus der Ratte (as head prints), ditto mark -"- repeats unverändert): 26%; activity at 10 µM (Uterus der Ratte; read-out: Acetylcholin 1.10^-6 (Mol): Amplidude, % bezogen auf d. Kontrolle, Uterus der Ratte (as head prints), Konzentration 1.10^-5 Mol, ditto mark -"- repeats unverändert): 100%; activity at 100 µM (Uterus der Ratte; read-out: Serotonin 1.10^-6 (Mol): Amplitude, % bezogen auf die Kontrolle, Uterus der Ratte): 0%; activity at 10 µM (Uterus der Ratte; read-out: Serotonin 1.10^-6 (Mol): Amplitude, % bezogen auf die Kontrolle, Uterus der Ratte, Konzentration 1.10^-5 Mol): 164%; Serotonin 1.10^-6 (Mol): Dauer, Min. (Uterus der Ratte; Uterus der Ratte, Konzentration 1.10^-5 Mol): 5±0.5 Min.; IC50 ([4]; read-out: Blockierung der K^+-Durchlässigkeit der Membrane Ic50 (Mol), node of Ranvier, frog sciatic nerve fibres, voltage clamp): 800 µM; activity at 100 µM (Samenleiter der Ratte; Rattus norvegicus, read-out: Adrenalin 1.10^-6: Amplitude, % bezogen auf d.Kontrolle, Samenleiter der Ratte, Konzentration 1.10^-4 Mol): 35%; activity at 10 µM (Samenleiter der Ratte; Rattus norvegicus, read-out: Adrenalin 1.10^-6: Amplitude, % bezogen auf d.Kontrolle, Samenleiter der Ratte, Konzentration 1.10^-5 Mol): 120%; Adrenalin 1.10^-6: Dauer, Min. (Samenleiter der Ratte; Samenleiter der Ratte, Konzentration 1.10^-4 Mol): 2±0.2 Min.; Adrenalin 1.10^-6: Dauer, Min. (Samenleiter der Ratte; Samenleiter der Ratte, Konzentration 1.10^-5 Mol): 2±0.06 Min.
Cc1nc2c(c(N)c1C)CCC2 [Verbindung 1, 4-Amino-2,3-dimethyl-6,7-dihydro-5H-1-pyrindinhydrochlorid]	28	0	0	0	–	–	50	90	26	0	α2-adrenoblockierende Wirkung zeigt	1.07	70	Analgetische Wirkung: Abnahme d. Zahl der "Krämpfe" bei Mäusen, in % (Zahl der Krämpfe): 60%; Änderung der Dauer der Seitenlage, in %: Hexenal 60 mg/kg (Wirkung von Hexenal): +28%; Antiarrhythmische Wirkung: Verlängerung d. Refraktärzeit (R), in % [7]: 120%; Änderung der Orientierungsaktivität, in % (Orientierungsaktivität): -25%; Verhältnis TD50 zu ED50 ([2]; ED50 = dose blocking the effect of Skopolamin in 50 % of the animals (passive avoidance, mice)): 15; TD50 (Tremor) ([2]; toxic dose causing tremor in 50 % of the animals): 6 mg/kg; LD50 [3]: 15 mg/kg; Antiarrhythmische Wirkung: Verlängerung d. Lebensdauer von Ratten an Hand des CaCl2-Arrhythmie-Modells, in % [9]: 150%
CCc1nc2c(c(N)c1C)CCC2 [Verbindung 27, 2-Ethyl-3-methyl-4-amino-6,7-dihydro-5H-1-pyrindinhydrat]	–	–	–	–	19	30	23	45	–	–	–	3.8	60	IC50 ([1]; node of Ranvier, frog sciatic nerve fibres, voltage clamp, read-out: Blockierung der Na^+-Durchlässigkeit der Membrane Ic50 (Mol)): 380 µM; activity at 100 µM (Uterus der Ratte; Uterus der Ratte, read-out: Serotonin 1.10^-6 (Mol): Amplitude, % bezogen auf die Kontrolle): 125%; selectivity ratio ([2]; in vivo, ED50 = dose blocking the effect of Skopolamin in 50 % of the animals (passive avoidance, mice), read-out: Verhältnis TD50 zu ED50): 10; antiamnestische Wirkung ([8]; in words, compared with Amyridin): antiamnestische Wirkung, welche die von Amyridin etwas übertraf; IC50 ([4]; node of Ranvier, frog sciatic nerve fibres, voltage clamp, read-out: Blockierung der K^+-Durchlässigkeit der Membrane Ic50 (Mol)): 150 µM; activity at 100 µM (Samenleiter der Ratte; Rattus norvegicus, Samenleiter der Ratte, Konzentration 1.10^-4 Mol, read-out: Adrenalin 1.10^-6: Amplitude, % bezogen auf d.Kontrolle): 126%
